# Earlier results in patent US7696242B2, “Hepatitis C inhibitor peptide analogs” (Boehringer Ingelheim International GmbH, priority 2004, dated 2010).
# System: hepatitis C virus
# Settings: two day clinical trial, patients infected with the hepatitis C virus
smiles,measurement,value
COc1ccc2c(O[C@@H]3C[C@H]4C(=O)N[C@]5(C(=O)O)C[C@H]5/C=C\CCCCC[C@H](NC(=O)OC5CCCC5)C(=O)N4C3)cc(-c3csc(NC(C)C)n3)nc2c1 [BILN 2061],reduction of viral loads in patients,effective in rapidly reducing viral loads
